Data taken from patent publication EP2787958B1, “CHELIDONIUM MAJUS EXTRACTS AND THEIR USE IN THE TREATMENT OF SKIN DISORDERS AND PROMOTION OF SKIN REGENERATION” (priority 2011, dated 2013).
Read-outs that look alike come from different tables or passages of the source.

Experiments:
HDF cells [1] = experiment: Summary of uses and toxic effects deduced from the cell assays (Table 1); assay type: cell-based, Human; conditions: for Anti-fibrotic (prevention of scar formation, also from acne) / Cytoprotective (antioxidant, anti-inflammatory and anti-ageing; useful also in the treatment of acne) / Cytotoxic / Irritant / Wound-healing: 24 hours
Description: Antiradical (skin protective): this is deduced from the free radical scavenger effects.
Revitalizing: this is deduced from the increased mitochondrial dehydrogenase effect.
Cytoprotective, with regard to oxidative damage (antioxidant, anti-inflammatory and anti-ageing): this is deduced from antagonising the stimulation of IL-1β and/or IL-6 induced by 100 µM H2O2 and from the absence of changes in cell morphology similar to the ones due to cell senescence.
Wound healing: this is deduced from the effect of inhibiting the production of IL-1β and by the effect of stimulating cell proliferation under standard growth conditions.
Cytotoxicity: this is deduced from the effect of reducing mitochondrial dehydrogenase activity or from the presence of morphologies characteristic of cell senescence.
Irritation: this is deduced from the effect of increased production of IL-6 and/or IL-1β under standard growth conditions.
Said uses in the fields of medicine and cosmetics or the toxic effects of the substances of the invention at a given dosage, for 24 hours, are summarized in Table 1 below.

interleukin 6 (IL-6) = experiment: Inflammatory cytokines in cell supernatant (Mosaic ELISA microarray): IL-6; assay type: cell-based, Human; conditions: for IL-6 ng/(ml* No. of cells from photo) ± SD: 24 hours; for IL-6 production (effect in words): 1-10 µM
Description: (§1) The inflammatory cytokines, CD40 ligand (CD40L), interferon γ (INF-γ), interleukin 1α (IL-1α), interleukin 1β (IL-1β), interleukin 6 (IL-6), interleukin 8 (IL-8), interleukin 17 (IL-17) and tumour necrosis factor α (TNF-α) were determined qualitatively and quantitatively. Each measurement was performed in duplicate using a Mosaic™ ELISA protein microarray assay system from R&D System in accordance with the supplier's instructions. Furthermore, with the aim of obtaining a correlation model between light signal intensity and cytokine concentration, a calibration curve using 6 concentrations was performed for each of them. Analysis of the data was performed using the dedicated Q-View™ Imager software package from Quansys Biosciences

[2] = tested on: Human dermal fibroblasts (HDF); experiment: Mitochondrial dehydrogenase activity (WST-1 formazan assay) in HDF cells; conditions: for Revitalizing agent: 24 hours; for activity at 1 µM / activity at 10 µM: Homo sapiens, Fibroblast, read-out: % mitochondrial dehydrogenase activity ± SD
interleukin 1β (IL-1β) = experiment: Inflammatory cytokines in cell supernatant (Mosaic ELISA microarray): IL-1β; assay type: cell-based, Human; conditions: for IL-1β ng/(ml* No. of cells from photo) ± SD: 24 hours
Description: as §1

HDF cells [3] = experiment: Evaluation of cell proliferation (counting of Sirius Red stained cells in photographs); conditions: 24 hours
[4] = tested on: collagen produced by HDF cells; experiment: Quantity of collagen produced by the cells (elution of Sirius Red)
[5] = Anti-radical activity (decay of the DPPH radical); assay type: biochemical; conditions: for Anti-radical (skin protective): 24 hours
Description: With regard to assays aimed at evaluating anti-radical activity, a chemical test was used where the decay of the diphenylpicrylhydrazyl (DPPH) radical is assessed in the absence or in the presence of the test substances. Indeed, the DPPH radical is used to test the ability of substances to act as free radical scavengers. DPPH in solution has a purple colour with a maximum absorbance peak at 517 nm which changes to yellow-colourless when this radical extracts a hydrogen atom from a radical scavenger to give rise to the reduced form DPPH-H. The assay has been conducted in quadruplicate in 96 well microplates (SARSTEDT Tissue Culture Plate 96-well flat bottom cell+). 50 µl of an ethanol solution of the test substance at 2X concentration and then 50 µl of a 200 µM solution of DPPH (MW 168,18, Aldrich 2,2-di(4-tert-octylphenyl)-1-picrylhydrazyl, free radical Lot# MKBF7574V Cat N° 257621-100 mg) have been added to each well of the microplate. A positive control consisting of 0.1 mM vitamin C and a negative control consisting of ethanol alone were included in each microplate. After 30 minutes from the addition of DPPH, photographs of the plates were taken (Canon PowerShot A610 5.0 Mpixels) and read spectrophotometrically at 530 nm.
Based on the analysis of the results reported in Table 9, some substances were selected for further characterisation of their anti-radical activity. For the selected substances, dose-activity curves were obtained and the IC50 value were computed using a non-linear regression model with the Hill equation at variable slope. Such substances had been selected due to both their anti-radical potential and the easiness of their isolation/production. The selection of substances was made in view of cosmetics applications. Moreover their activity on human dermal fibroblasts (HDF) is expected to be useful also for the development of dermatological medications. The selected substances are discussed below.

[6] = Dose 1 µm (coptisine: 1 pm [sic])

In the case of COc1ccc2c(c1OC)CN1CCc3cc4c(cc3[C@@H]1C2)OCO4 [canadine], the “Anti-fibrotic (prevention of scar formation, also from acne)” value (HDF cells [1]; [6]) is reported as “Yes (↓collagen, ↓IL-6, ↓IL-1β)”, the “Cytoprotective (antioxidant, anti-inflammatory and anti-ageing; useful also in the treatment of acne)” value (HDF cells [1]; [6]) is reported as “Yes (↓IL-6, ↓IL-1β)” and the Cytotoxic (HDF cells [1]; [6]) is reported as “No”. For the same molecule, the Irritant (HDF cells [1]; [6]) was “No”, the Wound-healing (HDF cells [1]; [6]) was “Yes (↓IL-1β)” and the “Anti-fibrotic (prevention of scar formation, also from acne)” value (HDF cells [1]; Dose 10 µm) was “No”. The “Cytoprotective (antioxidant, anti-inflammatory and anti-ageing; useful also in the treatment of acne)” value (HDF cells [1]; Dose 10 µm) was “No”, the Cytotoxic (HDF cells [1]; Dose 10 µm) was “No” and the Irritant (HDF cells [1]; Dose 10 µm) was “Yes (↓IL-1β)”. The Wound-healing (HDF cells [1]; Dose 10 µm) was “No”, the “concentrations at which no toxic (cytotoxic and irritant) effects are shown” value (HDF cells [1]; exposure for 24 hours) was “less than or equal to 1 µM” and the “IL-6 ng/(ml* No. of cells from photo) ± SD” value (interleukin 6 (IL-6); 1 µM, 34 ng/ml TGF-β1) was 451±121 ng/(ml* No. of cells from photo). For the same molecule, the “IL-6 ng/(ml* No. of cells from photo) ± SD” value (interleukin 6 (IL-6); 1 µM, 100 µM H2O2) was 584±19 ng/(ml* No. of cells from photo), the “IL-6 ng/(ml* No. of cells from photo) ± SD” value (interleukin 6 (IL-6); 1 µM, Standard conditions) was 405±8 ng/(ml* No. of cells from photo) and the “IL-6 ng/(ml* No. of cells from photo) ± SD” value (interleukin 6 (IL-6); 10 µM, 34 ng/ml TGF-β1) was 724±43 ng/(ml* No. of cells from photo). The “IL-6 ng/(ml* No. of cells from photo) ± SD” value (interleukin 6 (IL-6); 10 µM, 100 µM H2O2) was 718±63 ng/(ml* No. of cells from photo), the “IL-6 ng/(ml* No. of cells from photo) ± SD” value (interleukin 6 (IL-6); 10 µM, Standard conditions) was 508±43 ng/(ml* No. of cells from photo) and the “IL-6 production (effect in words)” value (interleukin 6 (IL-6); 34 ng/ml TGF-β1) was “antagonizes the production of IL-6”. For the same molecule, the “IL-6 production (effect in words)” value (interleukin 6 (IL-6); 100 µM H2O2) was “antagonizes the production of IL-6”, the “IL-6 production (effect in words)” value (interleukin 6 (IL-6); standard conditions) was “inhibits the production of IL-6” and the “concentrations below which no significant effects on mitochondrial dehydrogenase activity are shown” value [2] was “below 0.1 µM”. For the same molecule, the Revitalizing agent [2, 6] was “Yes”, the Revitalizing agent ([2]; Dose 10 µm) was “Yes” and the activity at 1 µM ([2]; 18 h) was 127 ± 3.64%. The activity at 10 µM ([2]; 18 h) was 130 ± 32.4%, the activity at 1 µM ([2]; 42 h) was 101 ± 10.6% and the activity at 10 µM ([2]; 42 h) was 124 ± 5.34%. The activity at 1 µM ([2]; 46 h) was 106 ± 5.25%, the activity at 10 µM ([2]; 46 h) was 130 ± 11.1% and the “mitochondrial dehydrogenase activity (effect in words)” value ([2]; between 0.1 and 100 µM, exposure time 18 and 42 h) was “tendency to increase in a dose-dependent manner”. For the same molecule, the “mitochondrial dehydrogenase activity (effect in words)” value ([2]; fibroblast cells, higher doses) was “inhibit mitochondrial dehydrogenase activity”, the “mitochondrial dehydrogenase activity (effect in words)” value ([2]; fibroblast cells, low dosage) was “stimulate mitochondrial dehydrogenase activity” and the “IL-1β production (effect in words)” value (interleukin 1β (IL-1β); 1 µM, 34 ng/ml TGF-β1) was “antagonizes the production of IL-1β”. For the same molecule, the “IL-1β ng/(ml* No. of cells from photo) ± SD” value (interleukin 1β (IL-1β); 1 µM, 34 ng/ml TGF-β1) was 116±19 ng/(ml* No. of cells from photo), the “IL-1β production (effect in words)” value (interleukin 1β (IL-1β); 1 µM, 100 µM H2O2) was “antagonizes the production of IL-1β” and the “IL-1β ng/(ml* No. of cells from photo) ± SD” value (interleukin 1β (IL-1β); 1 µM, 100 µM H2O2) was 90±3 ng/(ml* No. of cells from photo). For the same molecule, the “IL-1β ng/(ml* No. of cells from photo) ± SD” value (interleukin 1β (IL-1β); 1 µM, Standard conditions) was 81±2 ng/(ml* No. of cells from photo), the “IL-1β production (effect in words)” value (interleukin 1β (IL-1β); 1 µM, standard conditions) was “inhibits the production of IL-1β” and the “IL-1β production (effect in words)” value (interleukin 1β (IL-1β); 10 µM, 34 ng/ml TGF-β1) was “antagonizes the production of IL-1β”. For the same molecule, the “IL-1β ng/(ml* No. of cells from photo) ± SD” value (interleukin 1β (IL-1β); 10 µM, 34 ng/ml TGF-β1) was 173±14 ng/(ml* No. of cells from photo), the “IL-1β production (effect in words)” value (interleukin 1β (IL-1β); 10 µM, 100 µM H2O2) was “antagonizes the production of IL-1β” and the “IL-1β ng/(ml* No. of cells from photo) ± SD” value (interleukin 1β (IL-1β); 10 µM, 100 µM H2O2) was 132±138 ng/(ml* No. of cells from photo). The “IL-1β ng/(ml* No. of cells from photo) ± SD” value (interleukin 1β (IL-1β); 10 µM, Standard conditions) was 109±1 ng/(ml* No. of cells from photo), the “IL-1β production (effect in words)” value (interleukin 1β (IL-1β); 10 µM, standard conditions) was “stimulates the production of IL-1β” and the “No. of cells from photo ± SD” value (HDF cells [3]; 1 µM, 34 ng/ml TGF-β1) was 206±40. For the same molecule, the “No. of cells from photo ± SD” value (HDF cells [3]; 1 µM, 100 µM H2O2) was 253±32, the “No. of cells from photo ± SD” value (HDF cells [3]; 1 µM, Standard conditions) was 207±12 and the “No. of cells from photo ± SD” value (HDF cells [3]; 10 µM, 34 ng/ml TGF-β1) was 138±3. For the same molecule, the “No. of cells from photo ± SD” value (HDF cells [3]; 10 µM, 100 µM H2O2) was 188±25, the “No. of cells from photo ± SD” value (HDF cells [3]; 10 µM, Standard conditions) was 138±5 and the “collagen production (effect in words)” value ([4]; 1 µM, standard conditions) was “no evident effect on the modulation of collagen production”. For the same molecule, the “collagen production (effect in words)” value ([4]; 10 µM, standard conditions) was “collagen production stimulation effect”, the “collagen production (effect in words)” value ([4]; 1-10 µM (1 µM and 10 µM), 34 ng/ml TGF-β1) was “antagonizes the stimulation of collagen induced by 34 ng/ml TGF-β1” and the “collagen production (effect in words)” value ([4]; 1-10 µM (1 µM and 10 µM), 100 µM H2O2) was “inhibits collagen production”. For the same molecule, the “% DPPH activity” value ([5]; 1 mM, 30 minutes) was 103%, the “Anti-radical (skin protective)” value [5, 6] was “No” and the “Anti-radical (skin protective)” value ([5]; Dose 10 µm) was “No”.
